Assay results published in ChEMBL document CHEMBL3769388, “Optimization of a Dicarboxylic Series for in Vivo Inhibition of Citrate Transport by the Solute Carrier 13 (SLC13) Family” (J Med Chem, 2016).
Values after ≈ are worked out from the molar mass of the structure shown. Active and inactive are the calls of the source. The calls are words filed in the database; no cut-off is given here.

Key:
[1] = molecular target: Na(+)/citrate cotransporter (Homo sapiens, UniProt Q86YT5); assay: Inhibition of NaCT (unknown origin) expressed in HEK293 cells assessed as inhibition of [14C]citrate uptake by microbeta plate reader analysis; type: cell-based; details: read-out: IC50
[2] = Clearance in mouse hepatocytes assessed per 10^6 cells; type: ADME, cell-based, Hepatocyte; details: read-out: CLH
[3] = system: Rattus norvegicus; assay: Decrease in [14C]citrate uptake in iv dosed Wistar Han rat liver measured after 185 to 200 mins by scintillation counting method; type: functional, organism-based
[4] = system: Rattus norvegicus; assay: Decrease in [14C]citrate uptake in iv dosed Wistar Han rat kidney measured after 185 to 200 mins by scintillation counting method; type: functional, organism-based
[5] = Fraction unbound in Wistar Han rat by equilibrium dialysis method; type: ADME
[6] = Volume of distribution at steady state in Wistar Han rat at 1 mg/kg, iv by LC-MS/MS analysis; type: ADME, organism-based; details: in vivo, read-out: Vdss
[7] = Half life in Wistar Han rat at 1 mg/kg, iv by LC-MS/MS analysis; type: ADME, organism-based; details: in vivo
[8] = species: Rattus norvegicus; assay: Increase in [12C]-citrate levels in rat plasma measured over 140 to 150 mins by UPLC-MS/MS analysis; type: functional, organism-based
[9] = species: Rattus norvegicus; assay: Increase in […][13C]-citrate levels in rat plasma measured over 140 to 150 mins by UPLC-MS/MS analysis; type: functional, organism-based
[10] = species: Rattus norvegicus; assay: Increase in [12C]-citrate levels in rat liver measured over 140 to 150 mins by UPLC-MS/MS analysis; type: functional, organism-based
[11] = system: Mus musculus; assay: Increase in urinary citrate output in C57BL/6J mouse at 250 mg/kg, po measured after 7 hrs by UPLC-MS/MS analysis; type: functional, Urine
[12] = system: Mus musculus; assay: Increase in urinary calcium level in C57BL/6J mouse at 250 mg/kg, po measured after 7 hrs by UPLC-MS/MS analysis; type: functional, organism-based; details: Urine
[13] = molecular target: Cytochrome P450 1A2 (Homo sapiens, UniProt P05177); assay: Inhibition of CYP1A2 (unknown origin); type: ADME
[14] = molecular target: Cytochrome P450 3A4 (Homo sapiens, UniProt P08684); assay: Inhibition of CYP3A4 (unknown origin); type: ADME
Cytochrome P450 3A4, sequence (P08684 whole entry): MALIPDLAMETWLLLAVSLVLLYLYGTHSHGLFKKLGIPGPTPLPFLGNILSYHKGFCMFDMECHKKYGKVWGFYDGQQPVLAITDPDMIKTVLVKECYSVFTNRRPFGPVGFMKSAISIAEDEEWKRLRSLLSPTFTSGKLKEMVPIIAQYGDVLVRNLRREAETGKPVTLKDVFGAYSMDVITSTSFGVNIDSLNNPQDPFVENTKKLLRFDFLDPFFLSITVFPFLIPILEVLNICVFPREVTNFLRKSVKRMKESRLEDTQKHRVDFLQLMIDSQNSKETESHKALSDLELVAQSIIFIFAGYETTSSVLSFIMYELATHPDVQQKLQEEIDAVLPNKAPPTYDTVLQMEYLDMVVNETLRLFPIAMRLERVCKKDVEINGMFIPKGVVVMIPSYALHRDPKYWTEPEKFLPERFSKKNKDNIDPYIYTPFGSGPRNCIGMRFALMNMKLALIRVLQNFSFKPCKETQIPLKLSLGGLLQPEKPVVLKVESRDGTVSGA

[15] = molecular target: Amine oxidase [flavin-containing] A (Homo sapiens, UniProt P21397); assay: Inhibition of MAOA (unknown origin)
[16] = molecular target: Mitogen-activated protein kinase 14 (Homo sapiens) (UniProt Q16539); assay: Inhibition of MAPK14/P38-alpha (unknown origin)
[17] = molecular target: cGMP-inhibited 3',5'-cyclic phosphodiesterase 3B (Homo sapiens) (UniProt Q13370); assay: Inhibition of PDE3B (unknown origin)
[18] = molecular target: 3',5'-cyclic-AMP phosphodiesterase 4D (Homo sapiens) (UniProt Q08499); assay: Inhibition of PDE4D2 (unknown origin)
3',5'-cyclic-AMP phosphodiesterase 4D (Homo sapiens), sequence (Q08499 whole entry): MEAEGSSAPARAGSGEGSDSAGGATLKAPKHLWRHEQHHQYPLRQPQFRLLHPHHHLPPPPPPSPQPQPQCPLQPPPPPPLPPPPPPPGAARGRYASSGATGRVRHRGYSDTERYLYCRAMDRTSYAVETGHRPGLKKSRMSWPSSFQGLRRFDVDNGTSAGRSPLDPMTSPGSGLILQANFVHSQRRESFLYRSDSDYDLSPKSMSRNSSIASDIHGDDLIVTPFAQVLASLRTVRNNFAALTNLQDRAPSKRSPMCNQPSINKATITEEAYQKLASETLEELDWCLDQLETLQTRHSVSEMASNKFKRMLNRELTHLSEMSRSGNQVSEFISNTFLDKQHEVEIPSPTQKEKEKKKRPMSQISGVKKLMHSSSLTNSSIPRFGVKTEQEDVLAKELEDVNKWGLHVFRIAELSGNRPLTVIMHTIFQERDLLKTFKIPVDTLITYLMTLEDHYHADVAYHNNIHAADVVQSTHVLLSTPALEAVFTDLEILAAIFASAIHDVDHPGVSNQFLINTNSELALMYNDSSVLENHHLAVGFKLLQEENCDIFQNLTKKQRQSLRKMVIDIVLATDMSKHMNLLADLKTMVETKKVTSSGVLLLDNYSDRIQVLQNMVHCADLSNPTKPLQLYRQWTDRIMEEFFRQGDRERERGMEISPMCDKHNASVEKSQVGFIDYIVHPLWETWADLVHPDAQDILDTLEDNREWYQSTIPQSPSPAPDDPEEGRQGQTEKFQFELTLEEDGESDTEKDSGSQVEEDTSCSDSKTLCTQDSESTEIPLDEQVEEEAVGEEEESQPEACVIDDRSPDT

[19] = molecular target: 3',5'-cyclic-AMP phosphodiesterase 4D (Homo sapiens) (UniProt Q08499); assay: Inhibition of PDE4D3 (unknown origin)
[20] = molecular target: cGMP-specific 3',5'-cyclic phosphodiesterase (Homo sapiens) (UniProt O76074); assay: Inhibition of PDE5A1 (unknown origin)
[21] = molecular target: Proto-oncogene tyrosine-protein kinase Src (Homo sapiens) (UniProt P12931); assay: Inhibition of SRC (unknown origin)
[22] = molecular target: Sodium-dependent dopamine transporter (Homo sapiens) (UniProt Q01959); assay: Inhibition of DAT (unknown origin)
[23] = molecular target: Voltage-gated inwardly rectifying potassium channel KCNH2 (Homo sapiens, UniProt Q12809); assay: Inhibition of human ERG
[24] = molecular target: Sodium-dependent phosphate transport protein 2A (Homo sapiens) (UniProt Q06495); assay: Inhibition of NaPiA2 (unknown origin)
[25] = molecular target: Sodium-dependent phosphate transport protein 3 (Homo sapiens) (UniProt O00624); assay: Inhibition of NaPiA3 (unknown origin)
Sodium-dependent phosphate transport protein 3 (Homo sapiens), sequence (O00624 whole entry): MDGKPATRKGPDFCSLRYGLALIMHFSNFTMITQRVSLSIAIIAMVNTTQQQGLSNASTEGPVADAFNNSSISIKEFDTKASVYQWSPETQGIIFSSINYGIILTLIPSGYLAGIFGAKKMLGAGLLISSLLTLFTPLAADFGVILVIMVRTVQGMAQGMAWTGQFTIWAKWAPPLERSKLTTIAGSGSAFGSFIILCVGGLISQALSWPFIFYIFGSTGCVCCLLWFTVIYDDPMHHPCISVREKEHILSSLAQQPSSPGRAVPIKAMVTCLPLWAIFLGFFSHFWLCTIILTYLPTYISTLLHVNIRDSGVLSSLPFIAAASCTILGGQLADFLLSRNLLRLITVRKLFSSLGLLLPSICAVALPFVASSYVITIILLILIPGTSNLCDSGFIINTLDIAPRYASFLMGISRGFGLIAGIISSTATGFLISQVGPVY

[26] = molecular target: Sodium channel protein type 1 subunit alpha (Homo sapiens) (UniProt P35498); assay: Inhibition of NaV1.1 (unknown origin)
[27] = molecular target: Alpha-1A adrenergic receptor (Homo sapiens) (UniProt P35348); assay: Inhibition of ADRA1A (unknown origin)
[28] = molecular target: Alpha-2B adrenergic receptor (Homo sapiens) (UniProt P18089); assay: Inhibition of ADRA2B (unknown origin)
[29] = molecular target: Beta-1 adrenergic receptor (Homo sapiens) (UniProt P08588); assay: Inhibition of ADRB1 (unknown origin)
Beta-1 adrenergic receptor (Homo sapiens), sequence (P08588 whole entry, looked up): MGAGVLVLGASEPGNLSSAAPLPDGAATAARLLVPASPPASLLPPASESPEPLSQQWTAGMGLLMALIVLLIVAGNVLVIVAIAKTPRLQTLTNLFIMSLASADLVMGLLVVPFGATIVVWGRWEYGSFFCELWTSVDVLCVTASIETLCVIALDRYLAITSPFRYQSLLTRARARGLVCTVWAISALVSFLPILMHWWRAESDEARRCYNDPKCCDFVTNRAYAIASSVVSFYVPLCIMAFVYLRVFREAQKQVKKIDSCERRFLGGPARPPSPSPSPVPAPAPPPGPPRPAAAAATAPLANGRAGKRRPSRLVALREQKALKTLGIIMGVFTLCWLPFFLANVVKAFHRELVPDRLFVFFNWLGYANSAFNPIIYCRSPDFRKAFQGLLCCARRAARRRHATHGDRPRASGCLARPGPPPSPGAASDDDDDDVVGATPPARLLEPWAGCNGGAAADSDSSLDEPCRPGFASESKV

[30] = molecular target: Androgen receptor (Homo sapiens) (UniProt P10275); assay: Inhibition of Androgen receptor (unknown origin)
[31] = molecular target: Type-1 angiotensin II receptor (Homo sapiens) (UniProt P30556); assay: Inhibition of AGTR1 (unknown origin)
[32] = molecular target: Vasopressin V1a receptor (Homo sapiens) (UniProt P37288); assay: Inhibition of AVPR1A (unknown origin)
[33] = molecular target: Cannabinoid receptor 1 (Homo sapiens) (UniProt P21554); assay: Inhibition of CB1 (unknown origin)
[34] = molecular target: Gastrin/cholecystokinin type B receptor (Homo sapiens) (UniProt P32239); assay: Inhibition of CCKBR (unknown origin)
[35] = molecular target: D(2) dopamine receptor (Homo sapiens) (UniProt P14416); assay: Inhibition of D2 (unknown origin)
[36] = molecular target: Epidermal growth factor receptor (Homo sapiens) (UniProt P00533); assay: Inhibition of EGFR (unknown origin)
[37] = molecular target: Glucocorticoid receptor (Homo sapiens) (UniProt P04150); assay: Inhibition of GR (unknown origin)
[38] = molecular target: Histamine H1 receptor (Homo sapiens) (UniProt P35367); assay: Inhibition of H1 (unknown origin)
Histamine H1 receptor (Homo sapiens), sequence (P35367 whole entry): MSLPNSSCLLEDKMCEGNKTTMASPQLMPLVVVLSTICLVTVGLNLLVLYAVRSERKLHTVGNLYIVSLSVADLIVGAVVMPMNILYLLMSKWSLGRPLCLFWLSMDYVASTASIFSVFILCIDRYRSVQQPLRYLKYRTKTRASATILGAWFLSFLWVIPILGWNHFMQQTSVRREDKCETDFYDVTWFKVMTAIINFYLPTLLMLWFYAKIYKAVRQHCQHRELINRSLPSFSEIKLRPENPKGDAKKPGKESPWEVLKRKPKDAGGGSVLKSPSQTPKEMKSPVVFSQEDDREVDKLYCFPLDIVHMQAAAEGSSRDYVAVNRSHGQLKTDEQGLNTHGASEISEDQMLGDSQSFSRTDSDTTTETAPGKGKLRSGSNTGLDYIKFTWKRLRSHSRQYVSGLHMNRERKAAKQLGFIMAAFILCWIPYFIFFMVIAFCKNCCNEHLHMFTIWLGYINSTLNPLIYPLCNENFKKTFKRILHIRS

[39] = molecular target: Muscarinic acetylcholine receptor M1 (Homo sapiens) (UniProt P11229); assay: Inhibition of M1 (unknown origin)
[40] = molecular target: Muscarinic acetylcholine receptor M2 (Homo sapiens) (UniProt P08172); assay: Inhibition of M2 (unknown origin)
Muscarinic acetylcholine receptor M2 (Homo sapiens), sequence (P08172 whole entry): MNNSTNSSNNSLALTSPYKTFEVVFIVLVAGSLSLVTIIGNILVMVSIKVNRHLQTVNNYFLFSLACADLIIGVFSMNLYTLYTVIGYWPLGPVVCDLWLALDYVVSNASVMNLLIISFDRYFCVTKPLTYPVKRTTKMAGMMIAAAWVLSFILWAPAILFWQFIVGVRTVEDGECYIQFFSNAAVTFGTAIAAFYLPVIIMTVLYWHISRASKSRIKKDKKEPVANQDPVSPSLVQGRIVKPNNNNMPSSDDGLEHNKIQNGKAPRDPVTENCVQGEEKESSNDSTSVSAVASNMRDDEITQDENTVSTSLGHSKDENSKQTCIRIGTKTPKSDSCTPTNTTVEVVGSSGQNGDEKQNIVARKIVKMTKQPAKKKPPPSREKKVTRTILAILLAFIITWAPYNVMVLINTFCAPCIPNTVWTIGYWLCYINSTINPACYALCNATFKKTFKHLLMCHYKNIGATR

[41] = molecular target: Muscarinic acetylcholine receptor M3 (Homo sapiens) (UniProt P20309); assay: Inhibition of M3 (unknown origin)
[42] = molecular target: Substance-P receptor (Homo sapiens) (UniProt P25103); assay: Inhibition of NK1 receptor (unknown origin)
[43] = molecular target: Kappa-type opioid receptor (Homo sapiens) (UniProt P41145); assay: Inhibition of OPRK1 (unknown origin)
Kappa-type opioid receptor (Homo sapiens), sequence (P41145 whole entry): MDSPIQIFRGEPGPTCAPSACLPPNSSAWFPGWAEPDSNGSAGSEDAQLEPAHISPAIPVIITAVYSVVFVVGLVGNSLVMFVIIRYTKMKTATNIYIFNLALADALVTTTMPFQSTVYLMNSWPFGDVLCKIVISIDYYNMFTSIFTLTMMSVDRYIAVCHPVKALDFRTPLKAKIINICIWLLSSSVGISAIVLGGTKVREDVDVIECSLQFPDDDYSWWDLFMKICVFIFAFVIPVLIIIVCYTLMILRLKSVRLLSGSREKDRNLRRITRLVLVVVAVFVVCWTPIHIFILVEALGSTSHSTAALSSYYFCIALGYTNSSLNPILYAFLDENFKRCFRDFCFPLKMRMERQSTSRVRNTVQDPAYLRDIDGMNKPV

[44] = molecular target: 5-hydroxytryptamine receptor 1A (Homo sapiens) (UniProt P08908); assay: Inhibition of 5HT1A (unknown origin)
[45] = molecular target: 5-hydroxytryptamine receptor 2A (Homo sapiens) (UniProt P28223); assay: Inhibition of 5HT2A receptor (unknown origin)
[46] = molecular target: 5-hydroxytryptamine receptor 2B (Homo sapiens) (UniProt P41595); assay: Inhibition of 5HT2B receptor (unknown origin)
[47] = molecular target: 5-hydroxytryptamine receptor 3A (Homo sapiens) (UniProt P46098); assay: Inhibition of 5HT3 receptor (unknown origin)
[48] = molecular target: Vascular endothelial growth factor receptor 2 (Homo sapiens) (UniProt P35968); assay: Inhibition of VEGFR2 (unknown origin)
Vascular endothelial growth factor receptor 2 (Homo sapiens), sequence (P35968 whole entry): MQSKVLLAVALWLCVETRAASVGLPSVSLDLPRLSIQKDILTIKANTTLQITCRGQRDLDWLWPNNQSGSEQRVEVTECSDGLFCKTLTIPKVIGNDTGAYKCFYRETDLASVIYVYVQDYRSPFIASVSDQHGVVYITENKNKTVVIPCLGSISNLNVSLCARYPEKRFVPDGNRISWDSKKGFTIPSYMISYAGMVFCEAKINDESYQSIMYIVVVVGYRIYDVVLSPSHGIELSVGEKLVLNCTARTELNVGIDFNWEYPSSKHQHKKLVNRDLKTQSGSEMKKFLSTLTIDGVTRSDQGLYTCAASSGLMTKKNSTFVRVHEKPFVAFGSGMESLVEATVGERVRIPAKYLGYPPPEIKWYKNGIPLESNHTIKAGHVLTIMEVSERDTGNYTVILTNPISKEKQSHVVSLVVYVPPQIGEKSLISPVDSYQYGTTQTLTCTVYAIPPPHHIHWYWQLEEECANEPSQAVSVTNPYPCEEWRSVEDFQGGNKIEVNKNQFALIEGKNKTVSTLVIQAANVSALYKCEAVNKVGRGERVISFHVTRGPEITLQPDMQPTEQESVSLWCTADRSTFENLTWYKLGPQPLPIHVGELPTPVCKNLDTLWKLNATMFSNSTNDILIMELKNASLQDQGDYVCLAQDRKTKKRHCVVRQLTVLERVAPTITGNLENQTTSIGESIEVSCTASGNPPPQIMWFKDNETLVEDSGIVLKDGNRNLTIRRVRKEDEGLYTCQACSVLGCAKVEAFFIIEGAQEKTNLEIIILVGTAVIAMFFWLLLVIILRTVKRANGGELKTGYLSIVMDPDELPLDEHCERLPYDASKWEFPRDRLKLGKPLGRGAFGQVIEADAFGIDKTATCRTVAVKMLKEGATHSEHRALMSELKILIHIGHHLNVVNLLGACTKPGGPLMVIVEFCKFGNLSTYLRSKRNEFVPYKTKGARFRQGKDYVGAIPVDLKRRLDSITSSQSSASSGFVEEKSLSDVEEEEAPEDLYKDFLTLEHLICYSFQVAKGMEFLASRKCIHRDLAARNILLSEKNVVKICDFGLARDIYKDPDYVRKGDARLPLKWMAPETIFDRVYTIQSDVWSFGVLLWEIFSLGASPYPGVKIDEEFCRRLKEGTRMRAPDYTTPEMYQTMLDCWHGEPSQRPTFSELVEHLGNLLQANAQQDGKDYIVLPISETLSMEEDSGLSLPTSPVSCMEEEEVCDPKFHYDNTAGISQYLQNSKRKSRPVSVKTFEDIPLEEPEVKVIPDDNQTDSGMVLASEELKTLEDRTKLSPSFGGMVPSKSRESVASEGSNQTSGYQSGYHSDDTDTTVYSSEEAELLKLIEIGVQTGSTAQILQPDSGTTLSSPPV

[49] = Thermodynamic solubility of compound in aqueous solution at pH 6.5; type: physicochemical; details: read-out: Therm_solubility
[50] = species: Mus musculus; assay: Decrease in [14C]citrate uptake in DIO mouse liver during hyperinsulinemic-euglycemic clamp; type: functional, organism-based

With `COc1ncc(C)cc1CC[C@@](O)(CC(=O)O)C(=O)O` the IC50 [1] was 510 nM, the hepatocyte CLint [2] was less than 6 µL/min/1e6 cells and the IC50 [3] was 1400 nM. For the same compound, the IC50 [4] was 1000 nM, the fraction unbound [5] was 0.135 and the Vd [6] was 0.54 L/kg. For the same compound, the half-life [7] was 1.7 h, the Activity [8] was “Active” and the Activity [9] was “Active”. For the same compound, the Activity [10] was “Active”, the “fold change (FC)” value [11] was 230 and the Activity [12] was “Active”. The “inhibition (INH)” value [13] was “Not Active”, the “inhibition (INH)” value [14] was “Not Active” and the “inhibition (INH)” value [15] was “Not Active”. For the same compound, the inhibition [16] was “inactive”, the inhibition [17] was “inactive” and the inhibition [18] was “inactive”. For the same compound, the inhibition [19] was “inactive”, the inhibition [20] was “inactive” and the inhibition [21] was “inactive”. For the same compound, the inhibition [22] was “inactive”, the “inhibition (INH)” value [23] was “Not Active” and the inhibition [24] was “inactive”. For the same compound, the inhibition [25] was “inactive”, the inhibition [26] was “inactive” and the inhibition [27] was “inactive”. The inhibition [28] was “inactive”, the inhibition [29] was “inactive” and the inhibition [30] was “inactive”. The inhibition [31] was “inactive”, the inhibition [32] was “inactive” and the inhibition [33] was “inactive”. The inhibition [34] was “inactive”, the inhibition [35] was “inactive” and the inhibition [36] was “inactive”. The inhibition [37] was “inactive”, the inhibition [38] was “inactive” and the inhibition [39] was “inactive”. For the same compound, the inhibition [40] was “inactive”, the inhibition [41] was “inactive” and the inhibition [42] was “inactive”. The inhibition [43] was “inactive”, the inhibition [44] was “inactive” and the inhibition [45] was “inactive”. The inhibition [46] was “inactive”, the inhibition [47] was “inactive” and the inhibition [48] was “inactive”. For the same compound, the solubility thermodynamic [49] was 24 µM (≈ 6.8 µg/mL) and the inhibition [50] was “Active”.
